{
  "source": "BindingDB's records for doi:10.1016/j.ejmech.2018.11.015",
  "about": "(Fudan University, 2019)",
  "data": [
    {"experiment": "Inhibition of PB2 in Influenza A virus (A/Weiss/1943(H1N1)) infected in MDCK cells assessed as reduction in virus induced cell death after 5 days by CCK-8 assay", "units": {"EC50": "nM"}, "values": [
      {"smiles": "O=C(O)[C@H]1C2CCC(CC2)[C@@H]1Nc1nc(-c2c[nH]c3ncc(F)cc23)nc2c1CCCC2", "EC50": 12},
      {"smiles": "O=C(O)[C@H]1C2CCC(CC2)[C@@H]1Nc1nc(-c2c[nH]c3ncc(F)cc23)nc2cscc12", "EC50": 1.4},
      {"smiles": "O=C(O)[C@H]1C2CCC(CC2)[C@@H]1N1CCOc2cnc(-c3c[nH]c4ncc(F)cc34)nc21", "EC50": 24},
      {"smiles": "O=C(O)[C@H]1C2CCC(CC2)[C@@H]1Nc1nc(-c2c[nH]c3ncc(F)cc23)nc2[nH]ccc12", "EC50": 4.5},
      {"smiles": "O=C(O)[C@H]1C2CCC(CC2)[C@@H]1Nc1nc(-c2n[nH]c3ncc(F)cc23)nc2sccc12", "EC50": 0.06},
      {"smiles": "O=C(O)[C@H]1C2CCC(CC2)[C@@H]1Nc1nc(-c2c[nH]c3ncc(F)cc23)nc2ccsc12", "EC50": 0.5},
      {"smiles": "Cc1cnc2c(N[C@H]3C4CCC(CC4)[C@@H]3C(=O)O)nc(-c3c[nH]c4ncc(F)cc34)nc2c1", "EC50": 11},
      {"smiles": "O=C(O)[C@H]1C2CCC(CC2)[C@@H]1Nc1nc(-c2c[nH]c3ncc(F)cc23)nc2scnc12", "EC50": 3},
      {"smiles": "O=C(O)[C@H]1C2CCC(CC2)[C@@H]1Nc1nc(-c2c[nH]c3ncc(F)cc23)nc2ccoc12", "EC50": 5.3},
      {"smiles": "O=C(O)[C@H]1C2CCC(CC2)[C@@H]1Nc1nc(-c2c[nH]c3ncc(F)cc23)ncc1F", "EC50": 0.6},
      {"smiles": "O=C(O)[C@H]1C2CCC(CC2)[C@@H]1Nc1nc(-c2c[nH]c3ncc(F)cc23)nc2c1CS(=O)(=O)C2", "EC50": 2000},
      {"smiles": "O=C(O)[C@H]1C2CCC(CC2)[C@@H]1Nc1nc(-c2n[nH]c3ncc(F)cc23)nc2ccsc12", "EC50": 0.5},
      {"smiles": "O=C(O)[C@H]1C2CCC(CC2)[C@@H]1Nc1nc(-c2c[nH]c3ncc(F)cc23)nc2c1CCC2", "EC50": 5.5},
      {"smiles": "O=C(O)[C@H]1C2CCC(CC2)[C@@H]1Nc1nc(-c2c[nH]c3ncc(F)cc23)nc2c1CSC2", "EC50": 2.6},
      {"smiles": "O=C(O)[C@H]1C2CCC(CC2)[C@@H]1Nc1nc(-c2c[nH]c3ncc(F)cc23)nc2cccc(F)c12", "EC50": 20},
      {"smiles": "O=C(O)[C@H]1C2CCC(CC2)[C@@H]1Nc1nc(-c2c[nH]c3ncc(F)cc23)nc2c1CCS2", "EC50": 2.8},
      {"smiles": "O=C(O)[C@H]1C2CCC(CC2)[C@@H]1Nc1nc(-c2c[nH]c3ncc(F)cc23)nc2sccc12", "EC50": 0.2},
      {"smiles": "O=C(O)[C@H]1C2CCC(CC2)[C@@H]1Nc1nc(-c2c[nH]c3ncc(F)cc23)nc2c1S(=O)(=O)CC2", "EC50": 110},
      {"smiles": "O=C(O)[C@H]1C2CCC(CC2)[C@@H]1n1cnc2cnc(-c3c[nH]c4ncc(F)cc34)nc21", "EC50": 190},
      {"smiles": "Cc1cccc2nc(N[C@H]3C4CCC(CC4)[C@@H]3C(=O)O)nc(-c3c[nH]c4ncc(F)cc34)c12", "EC50": 450},
      {"smiles": "O=C(O)[C@H]1C2CCC(CC2)[C@@H]1Nc1nc(-c2c[nH]c3ncc(F)cc23)nc2cc(F)cnc12", "EC50": 10},
      {"smiles": "N#Cc1cn([C@H]2C3CCC(CC3)[C@@H]2C(=O)O)c2nc(-c3c[nH]c4ncc(F)cc34)ncc12", "EC50": 70},
      {"smiles": "Cc1cccc2nc(-c3c[nH]c4ncc(F)cc34)nc(N[C@H]3C4CCC(CC4)[C@@H]3C(=O)O)c12", "EC50": 11},
      {"smiles": "O=C(O)[C@H]1C2CCC(CC2)[C@@H]1Nc1nc(-c2c[nH]c3ncc(F)cc23)nc2nccnc12", "EC50": 13},
      {"smiles": "O=C(O)[C@H]1C2CCC(CC2)[C@@H]1n1ccc2cnc(-c3c[nH]c4ncc(F)cc34)nc21", "EC50": 12},
      {"smiles": "O=C(O)[C@H]1C2CCC(CC2)[C@@H]1Nc1nc(-c2n[nH]c3ncc(F)cc23)nc2c1SCC2", "EC50": 0.2},
      {"smiles": "O=C(O)[C@H]1C2CCC(CC2)[C@@H]1Nc1nc(-c2c[nH]c3ncc(F)cc23)nc2cc(C(F)F)sc12", "EC50": 10},
      {"smiles": "N#Cc1csc2c(N[C@H]3C4CCC(CC4)[C@@H]3C(=O)O)nc(-c3c[nH]c4ncc(F)cc34)nc12", "EC50": 4},
      {"smiles": "O=C(O)[C@H]1C2CCC(CC2)[C@@H]1Nc1nc(-c2c[nH]c3ccc(F)cc23)ncc1F", "EC50": 220},
      {"smiles": "Cn1cc(F)c2c(N[C@H]3C4CCC(CC4)[C@@H]3C(=O)O)nc(-c3c[nH]c4ncc(F)cc34)nc21", "EC50": 9.6},
      {"smiles": "O=C(O)[C@H]1C2CCC(CC2)[C@@H]1Nc1nc(-c2c[nH]c3ncc(F)cc23)nc2c1SCC2", "EC50": 0.4},
      {"smiles": "O=C(O)[C@H]1C2CCC(CC2)[C@@H]1Nc1nc(-n2ccc3ncc(F)cc32)ncc1F", "EC50": 230},
      {"smiles": "O=C(O)[C@H]1C2CCC(CC2)[C@@H]1Nc1nc(-c2c[nH]c3ncc(F)cc23)nc2cccnc12", "EC50": 14}
    ]}
  ]
}
